According to patent US10597388B2, “Pyridazinone herbicides” (FMC CORPORATION, priority 2014, dated 2020):

Tests used:
Assay type in all cases: in vivo
[1] = test system: barnyardgrass (Echinochloa crus-galli); assay: Test A greenhouse herbicide test, pre- and postemergence
Outline: (§1)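 Seeds sown in loam–sand blend got a preemergence directed soil spray of compound in non-phytotoxic solvent with surfactant. Postemergence treatment was given at 2–10 cm, one- to two-leaf stage. After ~10 d in greenhouse, injury was rated visually vs untreated controls, 0 (no effect) to 100 (complete control).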

[2] = test system: kochia (Kochia scoparia); assay: as above
Outline: as §1

[3] = test system: pigweed (Amaranthus retroflexus); assay: as above
Outline: as §1

[4] = test system: ragweed (common ragweed, Ambrosia elatior); assay: as above
Outline: as §1

[5] = test system: barnyardgrass (Echinochloa crus-galli); assay: Test B flooded paddy test; details: 250 g ai/ha, Flood; visual rating on scale of 0 to 100 where 0 is no effect and 100 is complete control; 13 to 15 d after treatment
Outline: (§2)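 Plants at the 2-leaf stage were flooded to 3 cm above soil, and test compounds were applied directly into the paddy water, which was held at that depth throughout. After 13 to 15 d in a greenhouse, injury was rated visually against untreated controls on a 0–100 scale (0 no effect, 100 complete control).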

[6] = test system: ducksalad (Heteranthera limosa); assay: Test B flooded paddy test; details: 250 g ai/ha, Flood; visual rating on scale of 0 to 100 where 0 is no effect and 100 is complete control; 13 to 15 d after treatment
Outline: as §2

[7] = test system: rice (Oryza sativa); assay: Test B flooded paddy test; details: 250 g ai/ha, Flood; visual rating on scale of 0 to 100 where 0 is no effect and 100 is complete control; 13 to 15 d after treatment
Outline: as §2

[8] = test system: sedge, umbrella (small-flower umbrella sedge, Cyperus difformis); assay: Test B flooded paddy test; details: 250 g ai/ha, Flood; visual rating on scale of 0 to 100 where 0 is no effect and 100 is complete control; 13 to 15 d after treatment
Outline: as §2

[9] = test system: kochia (Kochia scoparia); assay: Test C greenhouse herbicide test, postemergence
Outline: (§3)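 Ratings are visual scores from 0 (no effect) to 100 (complete control), made against controls 13–15 d after treatment. Postemergence sprays were applied in the greenhouse to plants 2–18 cm tall (1- to 4-leaf stage) in peat-moss/vermiculite potting medium.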

[10] = test system: oat, wild (wild oat, Avena fatua); assay: Test C greenhouse herbicide test, postemergence
Outline: as §3

[11] = Postemergence, 125 g ai/ha, 0 to 100 scale where 0 is no effect and 100 is complete control
[12] = Postemergence, 500 g ai/ha, visual rating after approx. 10 d, 0 to 100 scale (0 no effect, 100 complete control)
[13] = Preemergence, 125 g ai/ha, 0 to 100 scale where 0 is no effect and 100 is complete control
[14] = Preemergence, 500 g ai/ha, 0 to 100 scale where 0 is no effect and 100 is complete control
[15] = Postemergence, 31 g ai/ha, scale 0 to 100 (0 no effect, 100 complete control)
[16] = Postemergence, 62 g ai/ha, 0 to 100 scale (0 no effect, 100 complete control)
[17] = Postemergence, 250 g ai/ha, scale 0 to 100, 0 no effect, 100 complete control, 13 to 15 d
[18] = postemergence, 125 g ai/ha, scale 0 to 100, 0 no effect, 100 complete control
[19] = Postemergence, 8 g ai/ha, scale 0 to 100 (0 no effect, 100 complete control)
[20] = Postemergence, 16 g ai/ha, scale 0 to 100 (0 no effect, 100 complete control)

SMILES	Plant response rating, Barnyardgrass [1, 11]	Plant response rating, Barnyardgrass [1, 12]	Barnyardgrass plant response rating [1, 13]	Plant response rating, Barnyardgrass [1, 14]	Plant response rating, Kochia [2, 11]	Plant response rating, Kochia [2, 12]	Kochia plant response rating [2, 13]	Plant response rating, Kochia [2, 14]	Plant response rating, Pigweed [3, 11]	Plant response rating, Pigweed [3, 12]	Pigweed plant response rating [3, 13]	Plant response rating, Pigweed [3, 14]	Plant response rating, Ragweed [4, 11]	Plant response rating, Ragweed [4, 12]	Plant response rating, Ragweed [4, 14]	Plant response rating, Barnyardgrass [5]	Plant response rating, Ducksalad [6]	Plant response rating, Rice [7]	Plant response rating, Sedge, Umbrella [8]	Plant response rating, Kochia [9, 15]	also measured
COC(=O)Oc1c(OC)nn(C)c(=O)c1-c1c(C)ccc2ccccc12 [Compound 136]	20	100	10	80	100	100	60	90	90	100	100	100	100	100	90	0	0	0	0	95	Ragweed plant response rating [4, 13]: 80; Kochia plant response rating [9, 16]: 95; Plant response rating, Kochia [9, 17]: 100; Kochia plant response rating [9, 18]: 100; Plant response rating, Oat, Wild [10, 15]: 50; Oat, Wild plant response rating [10, 16]: 75; Plant response rating, Oat, Wild [10, 17]: 90; Oat, Wild plant response rating [10, 18]: 85
Cc1ccc2ccc(Cl)cc2c1-c1c(O)c(C)nn(C)c1=O [Compound 144]	100	100	90	100	100	100	100	100	100	100	100	100	100	100	100	30	40	30	0	98	Kochia plant response rating [9, 19]: 90; Plant response rating, Kochia [9, 19]: 90; Plant response rating, Kochia [9, 20]: 98; Oat, Wild plant response rating [10, 19]: 80; Plant response rating, Oat, Wild [10, 19]: 90; Plant response rating, Oat, Wild [10, 20]: 90; Plant response rating, Oat, Wild [10, 15]: 90
